# According to patent publication US20240425500A1 (priority 2021, published 2024):
# Test system: Phytophthora infestans
# Experiment: whole plant or invertebrate
# Format: in vivo
# Conditions: in Solanum lycopersicum, foliar, read-out: control of Phytophthora infestans compared to untreated control
row,SMILES,pest or weed control at 200 ppm
1,"CCc1cccc(N(C)C(=O)c2ccc3ncc(-c4ccc(NC(=O)OC)cc4)n3c2)c1 [Compound 10, methyl N-[4-[6-[(3-ethylphenyl)-methyl-carbamoyl]imidazo[1,2-a]pyridin-3-yl]phenyl]carbamate]",≥ 80%
2,"C#Cc1cccc(N(C)C(=O)c2ccc3ncc(-c4ccc(NC(=O)OC)nc4)n3c2)c1 [Compound 43, methyl N-[5-[6-[(3-ethynylphenyl)-methyl-carbamoyl]imidazo[1,2-a]pyridin-3-yl]-2-pyridyl]carbamate]",≥ 80%
3,"COC(=O)Nc1ccc(-c2cnc3ccc(C(=O)N(C)c4cccc(F)c4)cn23)cn1 [Compound 52, methyl N-[5-[6-[(3-fluorophenyl)-methyl-carbamoyl]imidazo[1,2-a]pyridin-3-yl]-2-pyridyl]carbamate]",≥ 80%
4,"COC(=O)Nc1ccc(-c2cnc3ccc(C(=O)N(C)c4cncc(OC)c4)cn23)cn1 [Compound 55, methyl N-[5-[6-[(5-methoxy-3-pyridyl)-methyl-carbamoyl]imidazo[1,2-a]pyridin-3-yl]-2-pyridyl]carbamate]",≥ 80%
5,"COC(=O)Nc1ccc(-c2cnc3ccc(C(=O)N(C)c4cccc(Cl)c4)cn23)cn1 [Compound 62, methyl N-[5-[6-[(3-chlorophenyl)-methyl-carbamoyl]imidazo[1,2-a]pyridin-3-yl]-2-pyridyl]carbamate]",≥ 80%
6,"COC(=O)Nc1ccc(-c2cnc3ccc(C(=O)N(C)c4ccnc(F)c4)cn23)cn1 [Compound 71, methyl N-[5-[6-[(2-fluoro-4-pyridyl)-methyl-carbamoyl]imidazo[1,2-a]pyridin-3-yl]-2-pyridyl]carbamate]",≥ 80%
7,"CCN(C(=O)c1ccc2ncc(-c3ccc(NC(=O)OC)nc3)n2c1)c1ccc(OC)c(OC)c1 [Compound 119, methyl N-[5-[6-[(3,4-dimethoxyphenyl)-ethyl-carbamoyl]imidazo[1,2-a]pyridin-3-yl]-2-pyridyl]carbamate]",≥ 80%
8,"COC(=O)Nc1ccc(-c2cnc3ccc(C(=O)N(CC(C)C)c4ccccc4)cn23)cn1 [Compound 134, methyl N-[5-[6-[isobutyl(phenyl)carbamoyl]imidazo[1,2-a]pyridin-3-yl]-2-pyridyl]carbamate]",≥ 80%

# Test system: Pythium ultimum
# Experiment: Pythium ultimum / liquid culture (seedling damping off)
# Format: cell-based
# Conditions: Globisporangium ultimum, liquid culture in PDB, 24 °C, 2-3 days after application, read-out: control of Pythium ultimum (inhibition of growth, photometric) compared to untreated control
# Description: Pythium ultimum/Liquid Culture (Seedling Damping Off):
# Mycelia fragments and oospores of a newly grown liquid culture of the fungus are directly mixed into nutrient broth (PDB potato dextrose broth). After placing a (DMSO) solution of test compound into a microtiter plate (96-well format), the nutrient broth containing the fungal mycelia/spore mixture is added. The test plates are incubated at 24° C. and the inhibition of growth is determined photometrically 2-3 days after application.
row,SMILES,inhibition at 20 ppm
1,"CCc1cccc(N(C)C(=O)c2ccc3ncc(-c4ccc(NC(=O)OC)cc4)n3c2)c1 [Compound 10, methyl N-[4-[6-[(3-ethylphenyl)-methyl-carbamoyl]imidazo[1,2-a]pyridin-3-yl]phenyl]carbamate]",≥ 80%
2,"C#Cc1cccc(N(C)C(=O)c2ccc3ncc(-c4ccc(NC(=O)OC)nc4)n3c2)c1 [Compound 43, methyl N-[5-[6-[(3-ethynylphenyl)-methyl-carbamoyl]imidazo[1,2-a]pyridin-3-yl]-2-pyridyl]carbamate]",≥ 80%
3,"COC(=O)Nc1ccc(-c2cnc3ccc(C(=O)N(C)c4cccc(F)c4)cn23)cn1 [Compound 52, methyl N-[5-[6-[(3-fluorophenyl)-methyl-carbamoyl]imidazo[1,2-a]pyridin-3-yl]-2-pyridyl]carbamate]",≥ 80%
4,"COC(=O)Nc1ccc(-c2cnc3ccc(C(=O)N(C)c4cncc(OC)c4)cn23)cn1 [Compound 55, methyl N-[5-[6-[(5-methoxy-3-pyridyl)-methyl-carbamoyl]imidazo[1,2-a]pyridin-3-yl]-2-pyridyl]carbamate]",≥ 80%
5,"COC(=O)Nc1ccc(-c2cnc3ccc(C(=O)N(C)c4cc(C)cc(OC)c4)cn23)cn1 [Compound 59, methyl N-[5-[6-[(3-methoxy-5-methyl-phenyl)-methyl-carbamoyl]imidazo[1,2-a]pyridin-3-yl]-2-pyridyl]carbamate]",≥ 80%
6,"COC(=O)Nc1ccc(-c2cnc3ccc(C(=O)N(C)c4ccc(F)nc4)cn23)cn1 [Compound 60, methyl N-[5-[6-[(6-fluoro-3-pyridyl)-methyl-carbamoyl]imidazo[1,2-a]pyridin-3-yl]-2-pyridyl]carbamate]",≥ 80%
7,"COC(=O)Nc1ccc(-c2cnc3ccc(C(=O)N(C)c4cccc(Cl)c4)cn23)cn1 [Compound 62, methyl N-[5-[6-[(3-chlorophenyl)-methyl-carbamoyl]imidazo[1,2-a]pyridin-3-yl]-2-pyridyl]carbamate]",≥ 80%
8,"COC(=O)Nc1ccc(-c2cnc3ccc(C(=O)N(C)c4ccc(C)c(C)c4)cn23)cn1 [Compound 65, methyl N-[5-[6-[(3,4-dimethylphenyl)-methyl-carbamoyl]imidazo[1,2-a]pyridin-3-yl]-2-pyridyl]carbamate]",≥ 80%
9,"COC(=O)Nc1ccc(-c2cnc3ccc(C(=O)N(C)c4ccc(OC(F)F)cc4)cn23)cn1 [Compound 66, methyl N-[5-[6-[[4-(difluoromethoxy)phenyl]-methyl-carbamoyl]imidazo[1,2-a]pyridin-3-yl]-2-pyridyl]carbamate]",≥ 80%
10,"COC(=O)Nc1ccc(-c2cnc3ccc(C(=O)N(C)c4ccc(Br)cc4)cn23)cn1 [Compound 68, methyl N-[5-[6-[(4-bromophenyl)-methyl-carbamoyl]imidazo[1,2-a]pyridin-3-yl]-2-pyridyl]carbamate]",≥ 80%
11,"COC(=O)Nc1ccc(-c2cnc3ccc(C(=O)N(C)c4cccc(Br)c4)cn23)cn1 [Compound 69, methyl N-[5-[6-[(3-bromophenyl)-methyl-carbamoyl]imidazo[1,2-a]pyridin-3-yl]-2-pyridyl]carbamate]",≥ 80%
12,"COC(=O)Nc1ccc(-c2cnc3ccc(C(=O)N(C)c4ccnc(F)c4)cn23)cn1 [Compound 71, methyl N-[5-[6-[(2-fluoro-4-pyridyl)-methyl-carbamoyl]imidazo[1,2-a]pyridin-3-yl]-2-pyridyl]carbamate]",≥ 80%
13,"COC(=O)Nc1ccc(-c2cnc3ccc(C(=O)N(C)c4cccc(C5CC5)c4)cn23)cn1 [Compound 72, methyl N-[5-[6-[(3-cyclopropylphenyl)-methyl-carbamoyl]imidazo[1,2-a]pyridin-3-yl]-2-pyridyl]carbamate]",≥ 80%
14,"COC(=O)CN(C(=O)c1ccc2ncc(-c3ccc(NC(=O)OC)nc3)n2c1)c1ccc(F)c(OC)c1 [Compound 91, methyl 2-(4-fluoro-3-methoxy-N-[3-[6-(methoxycarbonyl-amino)-3-pyridyl]imidazo[1,2-a]pyridine-6-carbonyl]anilino)acetate]",≥ 80%
15,"COC(=O)Nc1ccc(-c2cnc3ccc(C(=O)N(C)c4ccc(C(C)=O)cc4)cn23)cn1 [Compound 104, methyl N-[5-[6-[(4-acetylphenyl)-methyl-carbamoyl]imidazo[1,2-a]pyridin-3-yl]-2-pyridyl]carbamate]",≥ 80%
16,"COC(=O)Nc1ccc(-c2cnc3ccc(C(=O)N(CC#N)c4ccccc4)cn23)cn1 [Compound 108, methyl N-[5-[6-[cyanomethyl(phenyl)carbamoyl]imidazo[1,2-a]pyridin-3-yl]-2-pyridyl] carbamate]",≥ 80%
17,"COC(=O)Nc1ccc(-c2cnc3ccc(C(=O)N(CCO)c4ccccc4)cn23)cn1 [Compound 112, methyl N-[5-[6-[2-hydroxyethyl(phenyl)carbamoyl]imidazo [1,2-a]pyridin-3-yl]-2-pyridyl]carbamate]",≥ 80%
18,"COC(=O)Nc1ccc(-c2cnc3ccc(C(=O)N(C)c4ccc(Cl)c(C(F)(F)F)c4)cn23)cn1 [Compound 121, methyl N-[5-[6-[[4-chloro-3-(trifluoromethyl)phenyl]-methyl-carbamoyl]imidazo[1,2-a]pyridin-3-yl]-2-pyridyl]carbamate]",≥ 80%
19,"CCOC(=O)c1cccc(N(CC)C(=O)c2ccc3ncc(-c4ccc(NC(=O)OC)nc4)n3c2)c1 [Compound 122, ethyl 3-[ethyl-[3-[6-(methoxycarbonyl-amino)-3-pyridyl]imidazo[1,2-a]pyridine-6-carbonyl]amino]benzoate]",≥ 80%
20,"COC(=O)Nc1ccc(-c2cnc3ccc(C(=O)N(CCC#N)c4ccc(C)cc4)cn23)cn1 [Compound 125, methyl N-[5-[6-[2-cyanoethyl(p-tolyl)carbamoyl]imidazo[1,2-a]pyridin-3-yl]-2-pyridyl]carbamate]",≥ 80%
21,"CCN(C(=O)c1ccc2ncc(-c3ccc(NC(=O)OC)nc3)n2c1)c1ccc(C)c(F)c1 [Compound 127, methyl N-[5-[6-[ethyl-(3-fluoro-4-methyl-phenyl)carbamoyl]imidazo [1,2-a]pyridin-3-yl]-2-pyridyl]carbamate]",≥ 80%
22,"CCN(C(=O)c1ccc2ncc(-c3ccc(NC(=O)OC)nc3)n2c1)c1cccc(C#N)c1 [Compound 141, methyl N-[5-[6-[(3-cyanophenyl)-ethyl-carbamoyl]imidazo[1,2-a]pyridin-3-yl]-2-pyridyl]carbamate]",≥ 80%
23,"COC(=O)Nc1ccc(-c2cnc3ccc(C(=O)N(CC#N)c4ccc(C)cc4)cn23)cn1 [Compound 143, methyl N-[5-[6-[cyanomethyl(p-tolyl)carbamoyl]imidazo [1,2-a]pyridin-3-yl]-2-pyridyl]carbamate]",≥ 80%
24,"CCN(C(=O)c1ccc2ncc(-c3ccc(NC(=O)OC)nc3)n2c1)c1cccc(F)c1 [Compound 145, methyl N-[5-[6-[ethyl-(3-fluorophenyl)carbamoyl]imidazo[1,2-a]pyridin-3-yl]-2-pyridyl]carbamate]",≥ 80%
25,"COC(=O)Nc1ccc(-c2cnc3ccc(C(=O)N(c4ccccc4)C4CC4)cn23)cn1 [Compound 147, methyl N-[5-[6-[cyclopropyl(phenyl)carbamoyl]imidazo [1,2-a]pyridin-3-yl]-2-pyridyl]carbamate]",≥ 80%
26,"COC(=O)Nc1ccc(-c2cnc3ccc(C(=O)N(CCC#N)c4ccc(Cl)c(C)c4)cn23)cn1 [Compound 148, methyl N-[5-[6-[(4-chloro-3-methyl-phenyl)-(2-cyanoethyl)carbamoyl]imidazo[1,2-a]pyridin-3-yl]-2-pyridyl]carbamate]",≥ 80%
27,"CCOC(=O)CN(C(=O)c1ccc2ncc(-c3ccc(NC(=O)OC)nc3)n2c1)c1ccc(F)cc1 [Compound 150, ethyl 2-(4-fluoro-N-[3-[6-(methoxy-carbonylamino)-3-pyridyl]imidazo[1,2-a]pyridine-6-carbonyl]anilino)acetate]",≥ 80%
28,"CN(C(=O)c1ccc2ncc(-c3ccc(NC(=O)C4CC4)nc3)n2c1)c1ccc(F)cc1 [Compound 165, 3-[6-(cyclo-propanecarbonylamino)-3-pyridyl]-N-(4-fluorophenyl)-N-methyl-imidazo[1,2-a]pyridine-6-carboxamide]",≥ 80%
29,"CCC(=O)Nc1ccc(-c2cnc3ccc(C(=O)N(C)c4ccc(F)cc4)cn23)cn1 [Compound 166, N-(4-fluorophenyl)-N-methyl-3-[6-(propanoylamino)-3-pyridyl]imidazo[1,2-a]pyridine-6-carboxamide]",≥ 80%
30,"CCOC(=O)c1cc(N(C)C(=O)c2ccc3ncc(-c4ccc(NC(=O)OC)nc4)n3c2)ccc1F [Compound 176, ethyl 2-fluoro-5-[[3-[6-(methoxy-carbonylamino)-3-pyridyl]imidazo[1,2-a]pyridine-6-carbonyl]-methyl-amino]benzoate]",≥ 80%
